Source: patent US12077503B2, “Substituted cyclic amides and their use as herbicides” (FMC CORPORATION, priority 2015, dated 2024)

Assays:
Format in all cases: in vivo
[1] = tested on: corn (Zea mays); experiment: Test A postemergence; details: Zea mays, post-emergence, 240 h, 125 g ai/ha, Postemergence; visual injury after approximately 10 d; 0 to 100 scale where 0 is no effect and 100 is complete control
Outline: (§1)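 Visual injury scores from 0, no effect, to 100, complete control, were assigned versus untreated controls roughly 10 d after treatment in the greenhouse. Test chemicals, formulated with surfactant in a non-phytotoxic solvent, were applied to planted seeds as a preemergence soil spray or postemergence to one- to two-leaf plants 2 to 10 cm tall, in loam–sand soil.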

[2] = tested on: wheat (Triticum aestivum); experiment: Test A postemergence; details: Triticum aestivum, post-emergence, 240 h, 125 g ai/ha, Postemergence; visual injury after approximately 10 d; 0 to 100 scale where 0 is no effect and 100 is complete control; read-out: Plant response rating, Wheat
Outline: as §1

[3] = tested on: ryegrass, Italian (Italian ryegrass, Lolium multiflorum); experiment: Test A postemergence; details: Lolium multiflorum, post-emergence, 240 h, 125 g ai/ha, Postemergence; visual injury after approximately 10 d; 0 to 100 scale where 0 is no effect and 100 is complete control; read-out: Plant response rating, Ryegrass, Italian
Outline: as §1

[4] = tested on: Kochia (Kochia scoparia); experiment: Test A postemergence; details: Bassia scoparia, post-emergence, 240 h, 125 g ai/ha, Postemergence; visual injury after approximately 10 d; 0 to 100 scale where 0 is no effect and 100 is complete control; read-out: Plant response rating, Kochia
Outline: as §1

[5] = tested on: giant foxtail (Setaria faberii); experiment: Test A postemergence; details: Setaria faberi, post-emergence, 240 h, 125 g ai/ha, Postemergence; visual injury after approximately 10 d; 0 to 100 scale where 0 is no effect and 100 is complete control; read-out: Plant response rating, Foxtail, Giant
Outline: as §1

[6] = tested on: barnyardgrass (Echinochloa crus-galli); experiment: Test A postemergence; details: Echinochloa crus-galli, post-emergence, 240 h, 125 g ai/ha, Postemergence; visual injury after approximately 10 d; 0 to 100 scale where 0 is no effect and 100 is complete control; read-out: Plant response rating, Barnyardgrass
Outline: as §1

[7] = tested on: ragweed (common ragweed, Ambrosia elatior); experiment: Test A postemergence; details: Ambrosia artemisiifolia, post-emergence, 240 h, 125 g ai/ha, Postemergence; visual injury after approximately 10 d; 0 to 100 scale where 0 is no effect and 100 is complete control; read-out: Plant response rating, Ragweed
Outline: as §1

[8] = tested on: blackgrass (Alopecurus myosuroides); experiment: Test A postemergence; details: Alopecurus myosuroides, post-emergence, 240 h, 125 g ai/ha, Postemergence; visual injury after approximately 10 d; 0 to 100 scale where 0 is no effect and 100 is complete control; read-out: Plant response rating, Blackgrass
Outline: as §1

[9] = tested on: pigweed (Amaranthus retroflexus); experiment: Test A postemergence; details: Amaranthus retroflexus, post-emergence, 240 h, 125 g ai/ha, Postemergence; visual injury after approximately 10 d; 0 to 100 scale where 0 is no effect and 100 is complete control; read-out: Plant response rating, Pigweed
Outline: as §1

[10] = tested on: Galium (catchweed bedstraw, Galium aparine); experiment: Test A postemergence; details: Galium, post-emergence, 240 h, 125 g ai/ha, Postemergence; visual injury after approximately 10 d; 0 to 100 scale where 0 is no effect and 100 is complete control; read-out: Plant response rating, Galium
Outline: as §1

[11] = tested on: ryegrass, Italian (Italian ryegrass, Lolium multiflorum); experiment: Test A preemergence; details: Lolium multiflorum, pre-emergence, 240 h
Outline: as §1

[12] = tested on: Kochia (Kochia scoparia); experiment: Test A preemergence; details: Bassia scoparia, pre-emergence, 240 h
Outline: as §1

[13] = tested on: giant foxtail (Setaria faberii); experiment: Test A preemergence; details: Setaria faberi, pre-emergence, 240 h
Outline: as §1

[14] = tested on: barnyardgrass (Echinochloa crus-galli); experiment: Test A preemergence; details: Echinochloa crus-galli, pre-emergence, 240 h
Outline: as §1

[15] = tested on: ragweed (common ragweed, Ambrosia elatior); experiment: Test A preemergence; details: Ambrosia artemisiifolia, pre-emergence, 240 h
Outline: as §1

[16] = tested on: pigweed (Amaranthus retroflexus); experiment: Test A preemergence; details: Amaranthus retroflexus, pre-emergence, 240 h
[17] = tested on: sedge, umbrella (small-flower umbrella sedge, Cyperus difformis); experiment: Test B flooded paddy test; details: Cyperus difformis, Flood, 250 g ai/ha; scale of 0 to 100 where 0 is no effect and 100 is complete control; read-out: Sedge, Umbrella plant response rating
Outline: (§2)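 Compound goes directly into floodwater once pots are flooded 3 cm above soil, targeting plants at two leaves; the water depth is then held for the test duration. Plants sit 13–15 d in a greenhouse and are rated visually, 100 denoting complete control.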

[18] = tested on: barnyardgrass (Echinochloa crus-galli); experiment: Test B flooded paddy test; details: Echinochloa crus-galli, Flood, 250 g ai/ha; scale of 0 to 100 where 0 is no effect and 100 is complete control; read-out: Barnyardgrass plant response rating
Outline: as §2

[19] = tested on: ducksalad (Heteranthera limosa); experiment: Test B flooded paddy test; details: Heteranthera limosa, Flood, 250 g ai/ha; scale of 0 to 100 where 0 is no effect and 100 is complete control; read-out: Ducksalad plant response rating
Outline: as §2

[20] = tested on: rice (Oryra sativa); experiment: Test B flooded paddy test; details: Oryza sativa, Flood, 250 g ai/ha; scale of 0 to 100 where 0 is no effect and 100 is complete control; read-out: Rice plant response rating
Outline: as §2

SMILES: O=C1NC[C@H](c2cc(C(F)(F)F)cs2)[C@H]1C(=O)Nc1cccc(F)c1F [Compound 961]
- Corn plant response rating (crop injury, 0 = no effect, 100 = complete kill) at 125 g/ha [1]: 20%
- plant injury at 125 g/ha [2]: 0%
- pest or weed control at 125 g/ha [3]: 20%
- pest or weed control at 125 g/ha [4]: 50%
- pest or weed control at 125 g/ha [5]: 30%
- pest or weed control at 125 g/ha [6]: 90%
- pest or weed control at 125 g/ha [7]: 20%
- pest or weed control at 125 g/ha [8]: 30%
- pest or weed control at 125 g/ha [9]: 0%
- pest or weed control at 125 g/ha [10]: 30%
- pest or weed control at 125 g/ha ([11]; 125 g ai/ha, Preemergence, visual injury rating after approximately 10 d, read-out: Ryegrass, Italian plant response rating (0 to 100 scale, 0 is no effect, 100 is complete control)): 30%
- pest or weed control at 500 g/ha ([11]; 500 g ai/ha, preemergence, visual injury rating about 10 d after treatment, 0 to 100 scale (0 no effect, 100 complete control), read-out: Ryegrass, Italian plant response rating): 80%
- pest or weed control at 125 g/ha ([12]; 125 g ai/ha, Preemergence, visual injury rating after approximately 10 d, read-out: Kochia plant response rating (0 to 100 scale, 0 is no effect, 100 is complete control)): 70%
- pest or weed control at 500 g/ha ([12]; 500 g ai/ha, preemergence, visual injury rating about 10 d after treatment, 0 to 100 scale (0 no effect, 100 complete control), read-out: Kochia plant response rating): 90%
- pest or weed control at 125 g/ha ([13]; 125 g ai/ha, Preemergence, visual injury rating after approximately 10 d, read-out: Foxtail, Giant plant response rating (0 to 100 scale, 0 is no effect, 100 is complete control)): 70%
- pest or weed control at 500 g/ha ([13]; 500 g ai/ha, preemergence, visual injury rating about 10 d after treatment, 0 to 100 scale (0 no effect, 100 complete control), read-out: Foxtail, Giant plant response rating): 90%
- pest or weed control at 125 g/ha ([14]; 125 g ai/ha, Preemergence, visual injury rating after approximately 10 d, read-out: Barnyardgrass plant response rating (0 to 100 scale, 0 is no effect, 100 is complete control)): 90%
- pest or weed control at 500 g/ha ([14]; 500 g ai/ha, preemergence, visual injury rating about 10 d after treatment, 0 to 100 scale (0 no effect, 100 complete control), read-out: Barnyardgrass plant response rating): 90%
- pest or weed control at 125 g/ha ([15]; 125 g ai/ha, Preemergence, visual injury rating after approximately 10 d, read-out: Ragweed plant response rating (0 to 100 scale, 0 is no effect, 100 is complete control)): 60%
- pest or weed control at 500 g/ha ([15]; 500 g ai/ha, preemergence, visual injury rating about 10 d after treatment, 0 to 100 scale (0 no effect, 100 complete control), read-out: Ragweed plant response rating): 90%
- pest or weed control at 125 g/ha ([16]; 125 g ai/ha, Preemergence, visual injury rating after approximately 10 d, read-out: Pigweed plant response rating (0 to 100 scale, 0 is no effect, 100 is complete control)): 0%
- pest or weed control at 500 g/ha ([16]; 500 g ai/ha, preemergence, visual injury rating about 10 d after treatment, 0 to 100 scale (0 no effect, 100 complete control), read-out: Pigweed plant response rating): 30%
- pest or weed control at 250 g/ha [17]: 0%
- pest or weed control at 250 g/ha [18]: 40%
- pest or weed control at 250 g/ha [19]: 100%
- pest or weed control at 250 g/ha [20]: 20%
